Laboratory results published in article PMC11393731, “Sidechain structure–activity relationships of cyclobutane-based small molecule αvβ3 antagonists” (RSC Medicinal Chemistry, 2024).
Like-named read-outs stand apart in the source and are kept apart here.

Assays:
αvβ3 = target: T1, αvβ3 (Homo sapiens, UniProt P05106+P06756); test: αvβ3-mediated SK-Mel-2 melanoma cell adhesion to fibronectin; type: cell-based; details: for inhibition at 5 µM: read-out: Adhesion % inhibition @5 μM
T1 construct: αvβ3-expressing U87-MG glioblastoma and SK-Mel-2 melanoma cells; host or cells: SK-Mel-2 human melanoma cells
Experimental: (§1) Cancer cell lines were obtained from ATCC (SK-Mel-2) or ECACC (U87-MG) and cultured in RPMI-1640 culture medium containing 10% foetal bovine serum (FBS), sodium pyruvate (1 mM) and L-glutamine (2 mM). All are human in origin. The αvβ3 adhesion assay was performed as previously described.[22,43]

in vitro [1] = type: cell-based; details: human
Excerpt: (§2) Compounds were screened for non-specific cytotoxicity using the MTT assay before use in anti-αvβ3 functional assays. Unlike normal cells, cancer cell survival is often independent of αvβ3, and checking for cytotoxicity ensures inhibition of adhesion and invasion are truly from αvβ3 inhibition rather than cell death. […] In general, aminopyridines 53 and 54 were more cytotoxic than most THN-containing mimetics.
as §1
(§3) Table S1 Cytotoxicity of compounds on the cell lines used in the functional assays (measured by MTT assay). Cells (2000 cells/well for Sk-Mel-2; 1000 cells/well for U87MG) were incubated for 96 hours at 37 °C in a total volume of 200 µL/well (180 μL medium + 20 μL test compound solution). After 96 hours, the medium was replaced by fresh medium containing 0.5 mg/ml (end conc.) MTT per well, incubated for 4 h then the plate processed and read as described in Sutherland et al. 1 […]
(§4) 1. M. Sutherland, A. Gordon, F. O. Al-Shammari, A. Throup, A. Cilia La Corte, H. Philippou, S. D.
(§5) Shnyder, L. H. Patterson and H. M. Sheldrake, Cancers, 2023, 15, 4023.
(§6) (also on this page, place not known: al.1 Supplementary Information (SI) for RSC Medicinal Chemistry. This journal is © The Royal Society of Chemistry 2024)
(§7) (1 picture or pasted object on this page, not shown here)

[2] = tested on: U87-MG glioblastoma cells; test: U87-MG 3-D spheroid invasion assay; type: cell-based; details: Homo sapiens, U-87 MG, mean ± SD
Experimental: Selected compounds were further investigated for effects on αvβ3-mediated cell invasion to model a key step in tumour progression and metastasis. U87-MG glioblastoma cells; a well-known αvβ3-expressing cell line model,[35,36] were used in a 3-D spheroid invasion model.[37]
as §1
Spheroids were formed from U87-MG cells (1000 cells per 30 μl hanging drop) according to the method of Nowicki and then embedded in collagen as follows.[37] Collagen I (1400 μL of 3 mg mL^−1) was added to a 1 mL Eppendorf tube on ice, supplemented with 0.2 mL of complete RPMI, and adjusted to pH 7.4 with 1 N NaOH. The collagen mixture was pipetted into each chamber of an 8-chamber cover glass and incubated at 37 °C for 45 minutes. Spheroids from hanging drops were transferred to each chamber of the cover glass, the medium allowed to evaporate, and then a 200 μL layer of collagen gel matrix was added to each chamber and incubated at 37 °C for 45 minutes. 200 μL of RPMI containing test compounds was added to each chamber and incubated at 37 °C, 5% CO2 for 7 days. The spheroids were observed frequently using inverted light microscopy at 10× objective lens, and images were captured and analysed using ImageJ.

[3] = Metabolic stability in mouse liver homogenates; type: in vitro ADME; details: liver homogenate (1:3), 10 μM, 37 °C, read-out: half-life of methyl ester cleavage to free acid
Experimental: The methyl esters in 1 and 54 were cleaved to the corresponding free acids with half-lives of 5.4 minutes and 3.6 minutes respectively (ESI ^†). This was expected as small esters are frequently used to mask carboxylic acids with rapid ester hydrolysis releasing the active carboxylic acid in biological systems.
Compound metabolism in liver (ex vivo) was studied using (1 : 3) tissue homogenates of mouse liver. Mouse livers, supplied by the Institute of Cancer Therapeutics (ICT), under Home Office license guidelines (see below) were homogenized in phosphate-buffered saline. Liver homogenates were spiked with compound of interest (10 μM final concentration) and incubated at 37 °C. Reaction aliquots were removed over a 120 minute period, proteins precipitated using acetonitrile (1 : 3), and compound and metabolites analyzed by liquid chromatography-mass spectrometry (LC–MS) at the appropriate SIR (single ion recording) channel.
Detection was performed on a Waters Alliance system using a photodiode array detector, and a Waters Micromass ZQ quadrupole electrospray mass spectrometer connected in series. Compound and metabolites were separated on a RPB reversed-phase high-performance liquid chromatography column (HiChrom) using a mobile phase of acetonitrile/water/0.1% formic acid, with a gradient from 20% to 70% acetonitrile over 30 minutes at 1.1 mL min^−1.
Any metabolic intermediates were detected as singularly charged ions and identified by mass spectrometry.

in vitro [4] = type: cell-based; details: human; remark: listed apart in the source
Excerpt: as §2, §1, §3, §4, §5, §6, §7

[5] = read-out: Adhesion % inhibition @50 μM, SK-Mel-2 adhesion to fibronectin, mean ± SD
[6] = SK-Mel-2 adhesion to fibronectin, mean ± SD
[7] = SK-MEL-2, read-out: Adhesion % inhibition @50 μM (initial trial experiment), initial trial experiment, not tested further at this concentration

T1 sequence (P06756 31-889 limits assumed): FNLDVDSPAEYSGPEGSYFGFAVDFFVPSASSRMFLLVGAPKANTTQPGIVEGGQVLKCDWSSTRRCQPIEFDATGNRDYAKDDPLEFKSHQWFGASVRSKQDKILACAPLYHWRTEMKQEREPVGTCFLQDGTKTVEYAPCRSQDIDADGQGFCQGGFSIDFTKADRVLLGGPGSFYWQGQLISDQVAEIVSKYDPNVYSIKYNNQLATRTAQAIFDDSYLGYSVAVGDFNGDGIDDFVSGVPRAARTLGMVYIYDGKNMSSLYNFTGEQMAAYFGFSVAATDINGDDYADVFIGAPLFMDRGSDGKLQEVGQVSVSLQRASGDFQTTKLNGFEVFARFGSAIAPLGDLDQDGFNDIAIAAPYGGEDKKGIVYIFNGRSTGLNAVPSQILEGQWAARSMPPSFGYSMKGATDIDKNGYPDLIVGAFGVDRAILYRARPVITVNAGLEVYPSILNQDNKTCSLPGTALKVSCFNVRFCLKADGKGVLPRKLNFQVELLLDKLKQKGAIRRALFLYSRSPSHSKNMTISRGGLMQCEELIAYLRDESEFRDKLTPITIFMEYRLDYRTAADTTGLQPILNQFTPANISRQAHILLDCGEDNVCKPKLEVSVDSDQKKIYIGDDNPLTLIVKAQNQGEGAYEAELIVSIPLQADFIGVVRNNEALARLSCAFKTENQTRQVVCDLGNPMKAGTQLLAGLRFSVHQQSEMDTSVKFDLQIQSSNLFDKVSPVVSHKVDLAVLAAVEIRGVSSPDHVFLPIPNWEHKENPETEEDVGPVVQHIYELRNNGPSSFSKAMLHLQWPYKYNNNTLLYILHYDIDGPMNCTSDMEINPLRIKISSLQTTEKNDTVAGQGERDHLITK
T1 sequence (P06756 891-1048 partner limits assumed): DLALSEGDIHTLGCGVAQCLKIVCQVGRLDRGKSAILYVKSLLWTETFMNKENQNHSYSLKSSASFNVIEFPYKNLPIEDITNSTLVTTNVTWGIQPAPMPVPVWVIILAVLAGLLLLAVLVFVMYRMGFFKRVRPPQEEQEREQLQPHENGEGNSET
T1 sequence (P05106 27-788): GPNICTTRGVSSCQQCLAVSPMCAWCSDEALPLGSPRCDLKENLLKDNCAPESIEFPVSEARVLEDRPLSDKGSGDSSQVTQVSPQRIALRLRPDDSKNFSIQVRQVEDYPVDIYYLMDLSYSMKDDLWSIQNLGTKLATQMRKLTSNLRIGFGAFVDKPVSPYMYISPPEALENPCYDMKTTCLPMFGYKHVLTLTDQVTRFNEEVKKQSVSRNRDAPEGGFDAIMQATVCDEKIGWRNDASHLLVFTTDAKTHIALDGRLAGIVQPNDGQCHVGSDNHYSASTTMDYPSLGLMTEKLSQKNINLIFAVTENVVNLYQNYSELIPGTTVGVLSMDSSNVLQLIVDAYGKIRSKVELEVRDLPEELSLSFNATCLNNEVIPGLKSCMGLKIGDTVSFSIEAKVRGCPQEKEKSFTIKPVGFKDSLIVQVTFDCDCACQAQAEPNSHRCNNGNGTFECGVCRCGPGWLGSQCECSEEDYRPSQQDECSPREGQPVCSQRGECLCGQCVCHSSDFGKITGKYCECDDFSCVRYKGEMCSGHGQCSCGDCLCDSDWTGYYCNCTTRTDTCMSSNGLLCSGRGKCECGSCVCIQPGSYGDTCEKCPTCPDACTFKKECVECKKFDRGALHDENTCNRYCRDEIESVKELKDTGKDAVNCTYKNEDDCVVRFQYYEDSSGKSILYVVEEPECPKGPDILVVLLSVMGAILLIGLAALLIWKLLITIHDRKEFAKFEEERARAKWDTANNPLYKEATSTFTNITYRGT

`O=C(O)C[C@H](NS(=O)(=O)c1ccccc1)C(=O)N[C@H]1C[C@@H](CCc2ccc3cccnc3n2)C1` [Compound 38] showed an inhibition at 50 µM (αvβ3; [5]) of 43 ± 31% and an IC50 at 96 h (in vitro [1]) of over 50 µM.

In the case of `COC(=O)[C@H](CNC(=O)[C@H]1C[C@@H](CCc2ccc3c(n2)NCCC3)C1)NS(=O)(=O)c1c(C)cc(C)cc1C` [Compound 1], the IC50 (αvβ3; [6]) is reported as 0.34 ± 0.33 µM, the inhibition at 5 µM (αvβ3; [6]) is reported as 98.4 ± 1.9% and the inhibition at 10 µM [2] is reported as 60.2 ± 0.2%. The half-life at 10 μM [3] was 5.4 min.

With `COC(=O)[C@H](CCNC(=O)[C@H]1C[C@@H](CCc2ccc3cccnc3n2)C1)NS(=O)(=O)c1c(C)cc(C)cc1C` [Compound 20] the inhibition at 50 µM (αvβ3; [7]) was over 75%, the IC50 (αvβ3; [6]) was 11.5 ± 5.3 µM and the inhibition at 5 µM (αvβ3; [6]) was 43 ± 6%. For the same compound, the inhibition at 10 µM [2] was 55.7 ± 1.2%.

`COC(=O)[C@H](CCNC(=O)[C@H]1C[C@@H](Cc2ccc3c(n2)NCCC3)C1)NS(=O)(=O)c1c(C)cc(C)cc1C` [Compound 22] showed an inhibition at 50 µM (αvβ3; [7]) of over 75%, an inhibition at 5 µM (αvβ3; [6]) of 83 ± 19% and an inhibition at 10 µM [2] of 22.9 ± 5.7%. For the same compound, the IC50 at 96 h (in vitro [1]) was over 50 µM and the IC50 at 96 h (in vitro [4]) was 46.4 ± 3.5 µM.

`CC(C)(C)OC(=O)C[C@H](NS(=O)(=O)c1ccccc1)C(=O)N[C@H]1C[C@@H](CCc2ccc3c(n2)NCCC3)C1` [Compound 39] gave an inhibition at 50 µM (αvβ3; [7]) of over 75%, an inhibition at 5 µM (αvβ3; [6]) of 71 ± 16% and an IC50 at 96 h (in vitro [1]) of 35.2 ± 6.5 µM.

Compound `O=C(O)C[C@H](NS(=O)(=O)c1ccccc1)C(=O)N[C@H]1C[C@@H](CCc2ccc3c(n2)NCCC3)C1` [Compound 40] has an inhibition at 50 µM (αvβ3; [7]) of over 75%, an inhibition at 5 µM (αvβ3; [6]) of 67 ± 16% and an IC50 at 96 h (in vitro [1]) of over 50 µM.

`COC(=O)[C@H](CCNC(=O)[C@H]1C[C@@H](CCc2ccc3cccnc3n2)C1)NS(=O)(=O)c1ccccc1` [Compound 19] showed an inhibition at 50 µM (αvβ3; [7]) of over 75%, an inhibition at 5 µM (αvβ3; [6]) of 54 ± 15% and an IC50 at 96 h (in vitro [1]) of over 50 µM.

In the case of `CC(C)(C)OC(=O)C[C@H](NS(=O)(=O)c1ccccc1)C(=O)N[C@H]1C[C@@H](CCc2ccc3cccnc3n2)C1` [Compound 37], the inhibition at 50 µM (αvβ3; [7]) is reported as over 75%, the IC50 (αvβ3; [6]) is reported as 13.6 ± 8.3 µM and the inhibition at 5 µM (αvβ3; [6]) is reported as 50 ± 17%. The IC50 at 96 h (in vitro [1]) was over 50 µM.

Work on `COC(=O)[C@H](CC(=O)N[C@H]1C[C@@H](CCc2ccc3cccnc3n2)C1)NS(=O)(=O)c1c(C)cc(C)cc1C` [Compound 29] yielded an inhibition at 50 µM (αvβ3; [5]) of 56.6 ± 15.3% and an inhibition at 10 µM [2] of 70.4 ± 1.4%.

Work on `O=C1C[C@H](NS(=O)(=O)c2ccccc2)C(=O)N1[C@H]1C[C@@H](CCc2ccc3cccnc3n2)C1` [Compound 30] yielded an inhibition at 5 µM (αvβ3; [6]) of 39.9 ± 23.8% and an inhibition at 10 µM [2] of 22.6 ± 4%.

Work on `COC(=O)[C@H](CCNC(=O)[C@H]1C[C@@H](CCc2ccc3c(n2)NCCC3)C1)NS(=O)(=O)c1ccccc1` [Compound 23] yielded an inhibition at 50 µM (αvβ3; [7]) of over 75%, an inhibition at 5 µM (αvβ3; [6]) of 57 ± 13% and an IC50 at 96 h (in vitro [1]) of over 50 µM.

With `CNc1cccc(CC[C@H]2C[C@@H](C(=O)NC[C@H](NS(=O)(=O)c3ccccc3)C(=O)OC)C2)n1` [Compound 53] the IC50 (αvβ3; [6]) was 1.8 ± 0.4 µM, the inhibition at 5 µM (αvβ3; [6]) was 85 ± 1.4% and the inhibition at 10 µM [2] was 62.9 ± 1.5%.
